Test results from patent publication US20210255205A1, “COMPOSITIONS AND METHODS FOR TREATING METABOLIC DISEASE” (THE REGENTS OF THE UNIVERSITY OF CALIFORNIA, priority 2018, published 2021).
One block for each compound: values may come before it.

Key:
[1] = system: ASTER domain from Aster-B; experiment: 22-NBD-cholesterol binding competition with sterols, Aster-B; settings: competitor 10 μM
Experimental: FIG. 1E: Aster-B334-562 (1-10 μM) was titrated with 10-3000 nM 22-NBD-cholesterol in PBS and fluorescent ligand-binding assays were performed. […] FIG. 1G: Aster-B334-562 was titrated with 22-NBD-cholesterol in the presence of vehicle, estradiol, or various hydroxycholesterol (HC) sterol competitors as indicated (10 μM). Results values are means±SD.
Fluorescent sterol binding assays were carried out as previously described (Petrescu et al., 2001; Wei et al., 2016) in 384-well black flat-bottom plates and equilibrated at room temperature for 1 hour. Measurements were made using a CLARIOstar (BMG LABTECH) microplate reader. The NBD fluorophore was excited with 1(ex)=470 nm and 1(em)=525 and plotted using Prism software. Dissociation constants (KD) were determined by nonlinear regression analysis of dose-response curves.
Aster-A (FIG. 15A), B (FIG. 15B) and C (FIG. 15C) was titrated with 22-NBD-cholesterol in the presence of vehicle or various HC sterol competitors as indicated (3 μM). […] Results values are means±SD.

[2] = system: ASTER domain of Aster-B; experiment: GST agarose assay for [^3H]cholesterol binding; design: species or system mouse; settings: 150 nM protein, 0.003% Triton X-100 in PBS
Experimental: Reactions were carried out in binding buffer (0.003% Triton X-100 in 1× PBS) containing 150 nM of Aster-B ASTER protein and [^3H]cholesterol. After incubation for 30 min at room temperature, the mixture was incubated with pre-equilibrated of glutathione agarose resin (Pierce PI16100) at 4° C. for 2 h, then loaded onto a column and washed. The protein-bound [^3H]cholesterol was eluted with 10 mM GSH peptide and quantified by scintillation counting.

[3] = system: 3T3-L1 cells; experiment: Aster-A ASO knockdown, SREBP-2 pathway and gene/protein expression; type: cell-based, murine
Experimental: FIG. 13A: Immunoblot analysis of membrane (top) and nuclear (bottom) protein levels in 3T3-L1 cells treated for 48 h with control or Aster-A-specific ASO and then for the indicated times with cyclodextrin-cholesterol. Calnexin was used as a membrane loading control and Lamin A/C as a nuclear loading control. FIG. 13B: Real-time PCR analysis of gene expression in 3T3-L1 cells treated for 48 h with control or Aster-A-specific ASO and then for the indicated times with cyclodextrin-cholesterol. ***p<0.001. FIG. 13C: Real-time PCR analysis of Abca1 expression in 3T3-L1 cells treated for 48 h with control or Aster-A-specific ASO and then for the indicated times with cyclodextrin-cholesterol. **p<0.01; ***p<0.001. FIG. 13D: Time course of cholesteryl ester formation in 3T3-L1 fibroblasts treated with control or Aster-A-specific ASO for 48 h. Cells were incubated with [^3H]oleate for the indicated time, CE was isolated by TLC, and the incorporation of label into CE quantified by scintillation counting and normalized to protein (mg). *p<0.05; ***p<0.001. FIG. 13E: Expression levels of the indicated genes in adrenal glands from WT and Aster-B KO mice (mean±SEM; N=6-8 per group). Statistical analysis was performed using Student's t-test. Values are means±SEM. *p<0.05; **p<0.01; ***p<0.001; ****p<0.0001. FIG. 13F: Immunoblot analysis of membrane (top) and nuclear (bottom) protein levels in adrenals from WT and Aster-B KO mice (n=5). Calnexin was used as a membrane loading control and Lamin A/C as a nuclear loading control. FIG. 13G: Serum cholesterol levels in WT and Aster-B KO mice that were fasting for five h (mean±SEM; N=6 per group). FIG. 13H: Serum corticosterone levels measured by ELISA in WT and Aster-B KO mice that were fed ad-lib or fasted overnight (˜16 hours). N=4 per group. Statistical analysis was performed using Student's t-test. Values are mean±SEM. *p<0.05; **p<0.01; ***p<0.001; ****p<0.0001.
Generation 2.5 constrained ethyl ASOs were synthesized as described previously (Seth et al., 2009). For in vitro knockdown studies, control or Aster-A ASO ([…] (SEQ ID NO: 13)) was used. Undifferentiated murine 3T3-L1 cells were plated in 10% FBS DMEM on Day 0. On Day 1 cells were washed and supplemented with 1% LPDS. Cells were then transfected with ASOs using Dharmafect 1 reagent per the manufacturer's recommendations for knockdown studies (Dharmacon, 50 nM final concentration). On Day 2, the medium was changed to fresh DMEM with 1% LPDS, simvastatin (5 μM) and mevalonate (50 μM). On Day 3 cells were treated as described in FIG. 7A and samples were collected. The rate of incorporation of [^3H]oleate into cholesteryl [^3H]oleate was performed on Day 3 as previously described (Goldstein et al., 1983).
The consequence of loss of Aster function for sterol movement from the PM to the ER in cultured cells was investigated. Since Aster-B expression is minimal in most cultured cell lines, knockdown Aster-A expression, which is abundant 3T3-L1 cells, was chosen. When ER cholesterol levels rise, cells respond first by suppressing SREBP-2 cleavage (thereby blocking sterol synthesis) and second by activating ACAT-dependent CE synthesis. Cholesterol movement to the ER following exogenous delivery was assessed by measuring two endpoints: 1. the activity of the SREBP-2 pathway and 2. the formation of cholesterol esters. […] The fact that some suppression of the SREBP-2 pathway at later time points was still observed even with Aster-A ASO was not unexpected, since vesicular sterol transport pathways were presumably still operative.

[4] = system: 3T3-L1 cells; experiment: cholesteryl ester formation from [^3H]oleate after Aster-A ASO; type: cell-based, murine
Experimental: FIG. 13A: Immunoblot analysis of membrane (top) and nuclear (bottom) protein levels in 3T3-L1 cells treated for 48 h with control or Aster-A-specific ASO and then for the indicated times with cyclodextrin-cholesterol. Calnexin was used as a membrane loading control and Lamin A/C as a nuclear loading control. FIG. 13B: Real-time PCR analysis of gene expression in 3T3-L1 cells treated for 48 h with control or Aster-A-specific ASO and then for the indicated times with cyclodextrin-cholesterol. ***p<0.001. FIG. 13C: Real-time PCR analysis of Abca1 expression in 3T3-L1 cells treated for 48 h with control or Aster-A-specific ASO and then for the indicated times with cyclodextrin-cholesterol. **p<0.01; ***p<0.001. […] Cells were incubated with [^3H]oleate for the indicated time, CE was isolated by TLC, and the incorporation of label into CE quantified by scintillation counting and normalized to protein (mg). *p<0.05; ***p<0.001. […] FIG. 13H: Serum corticosterone levels measured by ELISA in WT and Aster-B KO mice that were fed ad-lib or fasted overnight (˜16 hours). […]
To assess the effects of Aster deficiency on CE production, cells were incubated in the presence of [^3H]oleate, treated with cyclodextrin-cholesterol complexes, and the incorporation of label into CE was quantified. […]

[5] = system: Gramd1b; experiment: Gramd1b gene expression by real-time PCR in macrophages; type: cell-based; settings: wild-type (WT) but not LXR-null mouse macrophages; 1 μM, 16 h
Source text: Values are means±SEM. Results are representative of three independent experiments. […] Input (Ctrl) served as a control for LXR enrichment. […] FIG. 1D: […] Values are means±SEM. FIG. 1E: […] FIG. 1F: […] Results values are means±SD. FIG. 1G: […] Results values are means±SD. FIG. 1H: […] Values are means±SEM. Total RNA was isolated using TRIzol reagent (Invitrogen) and reverse transcribed with the iScript cDNA synthesis kit (Biorad). cDNA was quantified by real-time PCR using SYBR Green Master Mix (Diagenode) on an ABI 7900 instrument. Gene expression levels were determined by using a standard curve. Each gene was normalized to the housekeeping gene 36B4 and was analyzed in duplicate. Primers used for real-time PCR are available upon request. […] Gramd1b was induced by a synthetic LXR agonist in wild-type (WT) but not LXR-null mouse macrophages (FIG. 1A). […] Gramd1b belongs to a family of highly-conserved genes, which have been designated Gramd1a, -b, and -c in databases. One-to-one orthologs of Gramd1b are present in all vertebrate classes (FIG. 2A). The predicted amino acid sequence of the human protein is 78% identical to that from Oreochromis niloticus (nile tilapia). These genes have not previously been characterized; their structures are incorrectly annotated in databases; and the function of their protein products is unknown. […] The protein products are referred to as Aster-A, -B, and -C.

[6] = target: ASTER domains from Aster-A, -B, and -C; experiment: fluorescent NBD-cholesterol binding assay; design: species or system mouse; settings: NBD-cholesterol 10-3,000 nM, ASTER-domain concentration constant; fit to a single exponential; average over the ASTER domains
Experimental: For binding and transfer studies Aster domains (Aster-A261-576, Aster-B224-560, Aster-C206-528) were expressed by baculovirus in Sf-9 insect cells with an N-terminal FLAG tag and a C-terminal 6× His Tag (“6× His Tag” disclosed as SEQ ID NO: 11). Proteins were expressed with P3 baculovirus for 48 hours at 27° C. Cells were recovered by centrifugation, lysed by sonication. Insoluble material was pelleted at 16,000×g for 40 minutes. Soluble protein was first purified using a Ni-NTA column (Qiagen, 30210) and eluted with 250 mM imidazole PBS buffer after extensive washing. Following dialysis proteins were purified using FLAG M2 affinity gel (Sigma A2220) columns and eluted with 100 μg/mL 1× FLAG peptide after washing for ten column volumes. Proteins were then either dialyzed to remove the FLAG peptide or purified further by size exclusion chromatography.
Fluorescent sterol binding assays were carried out as previously described (Petrescu et al., 2001; Wei et al., 2016) in 384-well black flat-bottom plates and equilibrated at room temperature for 1 hour. Measurements were made using a CLARIOstar (BMG LABTECH) microplate reader. The NBD fluorophore was excited with 1(ex)=470 nm and 1(em)=525 and plotted using Prism software. Dissociation constants (KD) were determined by nonlinear regression analysis of dose-response curves. […]

[7] = target: T1, Aster-B GRAM domain (Mus musculus, UniProt Q80TI0); experiment: protein-lipid overlay (PIP Strips); type: binding; settings: lipid strip, 100 pmol lipid per spot
T1 construct: B GRAM (Aster-B1-337) was conducted using PIP Strips (Echelon Biosciences); made in house; host or cells: Sf9 insect cells
T1 sequence (Q80TI0 41-377 limits assumed): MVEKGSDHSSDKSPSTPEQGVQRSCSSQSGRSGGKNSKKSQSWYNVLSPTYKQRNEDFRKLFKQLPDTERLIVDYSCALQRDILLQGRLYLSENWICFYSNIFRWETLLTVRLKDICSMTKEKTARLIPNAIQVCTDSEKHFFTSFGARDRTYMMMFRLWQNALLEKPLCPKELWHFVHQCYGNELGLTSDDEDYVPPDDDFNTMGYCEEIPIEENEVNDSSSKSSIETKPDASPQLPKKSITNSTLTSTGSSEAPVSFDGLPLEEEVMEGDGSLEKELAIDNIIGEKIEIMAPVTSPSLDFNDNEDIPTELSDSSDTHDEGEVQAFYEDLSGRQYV
Experimental: FIG. 9A: Protein-lipid overlay over purified mouse Aster-B GRAM domain with various phospholipid species. PA and PS correspond to phosphatidic acid and phosphatidylserine, respectively. FIG. 9A discloses “6xHis” as SEQ ID NO: 11. FIG. 9B: Purified Aster-B GRAM domain was incubated with sucrose-loaded heavy liposomes containing Dansyl-PE and 80-85% PC or 80-85% PS+/−5% Cholesterol. Liposomes were sedimented, washed, and analyzed by immunoblotting for associated Aster-B Gram protein (anti-His antibody). FIG. 9C: Localization of full-length and B ΔGRAM Aster-B-GFP constructs with plasma membrane (CellMask stain) expressed in HeLa cells in the presence or absence of cholesterol loading imaged by live cell confocal microscopy. […] FIG. 9E: Quantification of Aster-B PH-EGFP intensity in the TIRF plane upon cholesterol loading (left panel; n=2-3 cells, error bars+/−SD). […] TIRF videos recorded 5 slices (slices 3-5 were used to calculate FO) before cholesterol addition. […]
The Aster proteins contain an N-terminal GRAM domain, a structural motif related to the pleckstrin homology domain that is found in glucosyltransferases, Rab-like GTPase activators, myotubularins, and other membrane-associated proteins. […] Given that phosphatidylserine is highly enriched in the inner leaflet of the PM, it was further determined if the Aster-B GRAM domain was associated with phosphatidylserine-containing liposomes.

Compound: CC(C)CCC[C@@H](C)[C@H]1CC[C@H]2[C@@H]3[C@@H](O)C=C4C[C@@H](O)CC[C@]4(C)[C@H]3CC[C@]12C [7β-hydroxycholesterol]
inhibition of binding of NBD-cholesterol to the ASTER domain from Aster-B [1]: comparatively poor competitors

direct binding to the ASTER domain of Aster-B [2]: direct binding
Compound: CC(C)CCC[C@@H](C)[C@H]1CC[C@H]2[C@@H]3CC=C4C[C@@H](O)CC[C@]4(C)[C@H]3CC[C@]12C [[^3H]cholesterol]

Compound: CC(C)CCC[C@](C)(O)[C@H]1CC[C@H]2[C@@H]3CC=C4C[C@@H](O)CC[C@]4(C)[C@H]3CC[C@@]21C [20α-HC, 20α-hydroxycholesterol]
inhibition of binding of NBD-cholesterol to the ASTER domain from Aster-B [1]: inhibited

inhibition of binding of NBD-cholesterol to the ASTER domain from Aster-B [1]: comparatively poor competitors
Compound: CC(C)CC[C@H](O)[C@@H](C)[C@H]1CC[C@H]2[C@@H]3CC=C4C[C@@H](O)CC[C@]4(C)[C@H]3CC[C@]12C [22S-hydroxycholesterol]

Compound: C[C@H](CCCC(C)(C)O)[C@H]1CC[C@H]2[C@@H]3CC=C4C[C@@H](O)CC[C@]4(C)[C@H]3CC[C@]12C [25-HC, 25-hydroxycholesterol]
inhibition of binding of NBD-cholesterol to the ASTER domain from Aster-B [1]: inhibited

Compound: Aster-A-specific ASO: Generation 2.5 constrained ethyl ASO, GTGGAATTTATTCAGG (SEQ ID NO: 13) (Generation 2.5 constrained ethyl (cEt) ASO, modification pattern not given here)
Gramd1a expression ([3]; ASO 50 nM, 48 h): nearly abolished
LDLR protein levels ([3]; ASO 48 h): increased
SREBP-2 processing ([3]; ASO 48 h): induction
expression of SREBP-2 target genes, including Hmcgr, and Hmgcs ([3]; ASO 48 h): increased
ability of exogenously added cyclodextrin-cholesterol to suppress SREBP-2 processing ([3]; Aster-A silenced cells): clearly delayed
expression of Abca1 (protein and mRNA) ([3]; absence of Aster-A): reciprocally reduced
rate at which cholesterol delivered to the PM was incorporated into CE ([4]; [^3H]oleate, cyclodextrin-cholesterol): markedly slower
amount of CE formed relative to control cells ([4]; two hours after cholesterol addition): less than 25%

Compound: CC(C)CC[C@@H](O)[C@@H](C)[C@H]1CC[C@H]2[C@@H]3CC=C4C[C@@H](O)CC[C@]4(C)[C@H]3CC[C@]12C [22R-HC, 22-R-hydroxycholesterol]
inhibition of binding of NBD-cholesterol to the ASTER domain from Aster-B [1]: inhibited

Compound: CC(C)CCC[C@@H](C)[C@H]1CC[C@H]2[C@@H]3CC=C4[C@@H](O)[C@@H](O)CC[C@]4(C)[C@H]3CC[C@]12C [4β-hydroxycholesterol]
inhibition of binding of NBD-cholesterol to the ASTER domain from Aster-B [1]: comparatively poor competitors

inhibition of binding of NBD-cholesterol to the ASTER domain from Aster-B [1]: inhibited
Compound: CC(C)CCC[C@@H](C)[C@H]1CC[C@H]2[C@@H]3CC=C4C[C@@H](O)CC[C@]4(C)[C@H]3CC[C@]12C [cholesterol]

Compound: O=C(O)Cc1cccc(OCCCN(Cc2cccc(C(F)(F)F)c2Cl)CC(c2ccccc2)c2ccccc2)c1 [synthetic LXR agonist, GW3965]
Gramd1b expression [5]: induced

Compound: C[C@H](CNc1ccc([N+](=O)[O-])c2nonc12)[C@H]1CC[C@H]2[C@@H]3CC=C4C[C@@H](O)CC[C@]4(C)[C@H]3CC[C@]12C [NBD-cholesterol, 22-NBD-cholesterol]
Kd [6]: < 100 nM

interaction with purified Aster-B GRAM domain [7]: interacted strongly
Compound: phosphatidic acid [phosphatidic acid (PA)]
